{
  "source": "patent US6610699B2",
  "about": "“Use of L-carnitine and its alkanoyl derivatives in the preparation of medicaments with anticancer activity” (Sigma-Tau Industrie Farmaceutiche Riunite S.p.A., priority 1998, dated 2003)",
  "key": {"[1]": {"system": "BALB/c mice inoculated with murine carcinoma of the breast (L-MM3)", "assay": "Taxol-induced neutropenia in mice with L-MM3 carcinoma of the breast, blood cell count", "description": "In addition, in this tumour model, the amount of circulating neutrophils was measured.\nAcetyl L-carnitine inner salt (sterile ampoule), solubilised in water for injectable preparations, was used. Each ampoule of ALC is dissolved in 4 ml of water for injections (Solution O). 0.8 ml of (O) are brought to 50 ml with sterile PBS (Sigma) in order to perform the oral administration (100 mg/kg/50 ml).\nAt the time of use, the 12 mg/ml solution is diluted 1:4 with saline in phosphate buffer (PBS) (SIGMA,) and injected i.p. (30 mg/kg/10 ml).\nAnimals: 120 female BALB/c mice weighing 18-20 g (Harlan)\nTreatment schedule 1: the transplantable murine breast cancer cells (L-MM3) of Balb/c origin are grown at 37° C. in plastic flasks in a 5% CO2 humidified incubator in DMEM medium containing 5% heat-inactivated FCS, L-glutamine 2 mM, and gentamicin 80 μg/ml. At the time of inoculation, the cells are detached with trypsin-EDTA and re-suspended in the same medium without […].\nUnanaesthetised female Balb/c mice received subcutaneous injections in the flank of 4×10^5 cells in 0.2 ml of DMEM.\nFour days after inoculation of the tumour, the animals were treated with the molecules according to the following schedule, for the purposes of evaluating neutropenia:\nALC is administered then for 10 days; the animals are sacrificed after 6 hours.\nThe experimental groups, each consisting of 15 mice, are:\nBlood and bone marrow samples are taken for the first treatment schedule animals. On the days they are sacrificed, the mice are anaesthetised with CO2; blood is taken from the retro-orbital plexus (0.5 ml blood/mouse) and placed in Eppendorf test tubes containing 10 μl of Vister heparin (5000 U/ml). The animals are sacrificed by cervical dislocation. Later, the bone marrow samples are taken.\nThe instrument is used according to the instructions provided in the operating manual. The blood (25 μl) is taken from the dilutor and brought to a volume of 10 ml with isotonic solution (PLTA Saline, Delcon) in a beaker (dil. 1:400) (Solution A). From Solution A, the dilutor takes 100 μl and brings them to 10 ml (dil. 1:100) in another beaker (Solution B). To Solution A are added 3 drops of lysing agent (Emosol, Delcon), the solution is mixed by hand and left to act for approximately 2 minutes so that the red blood cells are lysed and HGB (haemoglobin) released. Solution A containing the lysing agent is used for the WBC and haemoglobin (HGB) readings. Solution B is used for the RBC and platelet (PLT) readings.\nDouble readings are done on each sample, and between one sample and the next, the instrument is washed using isotonic solution, Superfrost plus slides (25×75×1 mm) (Mensel-Glaser), ready for use, are adopted. The blood (8 μl) is deposited on the right-hand side of the slide; another slide, placed at a 45° angle, to the left of the blood, is drawn back until in comes into contact with the drop which spreads rapidly along the contact line between the two slides; the slide is moved forwards with a smooth, rapid movement so as to obtain a thin film of blood. The slide is left to dry in air, stained with Diff-Quick (DADE) dye, according to the attached instructions, and dried again in air.\nThe slides are immersed in Histolemon solution (Carlo Erba) for 2 sec.; a drop of synthetic mountant (Shandon) is deposited at the centre of the slide and a cover slide is placed over it covering the entire blood smear, taking care not to form bubbles between the two slides. The slides are dried and then the WBC count is performed, up to 100, with an optical microscope, after depositing a drop of cedar oil on the slide.\nThe quantity of […], assessed using the haemocytometer, is multiplied by the percentage value of the corresponding neutrophil granulocytes of the leukocyte formula. This parameter, divided by 100, expresses the value of neutrophils/mm^3 blood.\nComparison between the neutrophil granulocyte values obtained for the different groups is done using ANOVA."}, "Female Wistar rats": {"system": "Female Wistar rats", "assay": "Taxol-induced peripheral neuropathy: sensory nerve conduction velocity measured on the tail", "conditions": "5 weeks", "experimental": "Female Wistar rats aged 3 months (Charles River) were used, housed at 22±2° C., with 50±15% relative humidity and a 12 hour light/darkness cycle.\nThe following method was used: the animals, anaesthetised with a gaseous mixture composed of 0.45 halothane, nitrogen protoxide and oxygen, were depilated in the stimulation zone and placed on an operating table. The recordings and stimulations of the sensory responses were done using an Ote Biomedica Phasis II electromyograph. […]\nThe sensory nerve conduction velocity, expressed in ms, was calculated as the ratio of the distance between the two stimulation points, expressed in mm, to the difference in latency of the waves produced by proximal (the nearest) and distal (the farthest from the dorsal spine) stimulation, expressed in ms.\nThe velocity was measured in all groups of animals both in basal conditions (prior to any administration) and after 5 weeks of treatment.\nThe results were expressed as means±standard deviation; significance was assessed using the “t”-test, for both independent and paired data, with a statistical significance cut-off of p<0.05."}, "Hamsters": {"system": "Hamsters", "assay": "Bleomycin-induced pulmonary toxicity in hamsters: lung hydroxyproline content", "assay_type": "in vivo, hamster", "conditions": "pre-treatment i.p. (ALC 200 mg/kg or saline, daily 1 week)/intratracheal instillation (bleomycin 1 unit or saline); day 22", "description": "Hamsters weighing 120 g were treated with bleomycin (1 unit) by the intratracheal route (IT) or with an equivalent volume of saline. In addition, the animals were pre-treated with ALC (200 mg/kg) or saline intraperitoneally just before the instillation of bleomycin, followed by daily injections for 1 week. The animals were allowed 3 weeks to recover prior to taking the tissue samples. At the time tissue samples were taken (day 22), one lung of each animal was prepared for histological investigation and the other lung for quantitative determination of hydroxyproline.\nThe hydroxyproline content (one of the main constituents of collagen) was measured using the known Woessner method. Lung samples were homogenised, hydrolysed with NaOH, and then left to oxidise before adding Erlich aldehyde reagent. Duplicate aliquots of each sample were assayed by spectrophotometry and compared with a standard calibration curve obtained with purified hydroxyproline. The hydroxyproline content (HYP) is expressed as mg/lung."}, "M109 murine lung cancer": {"system": "M109 murine lung cancer", "conditions": "for Size of metastases / number of lung metastases (Mean ± SD): day 22 after inoculation", "experimental": "The animals were kept under observation up to day 22 after inoculation of the M109 murine lung cancer cells, and were then sacrificed the lungs removed to determine the number of metastases.\nDetermination of the number of lung metastases: on day 22 after inoculation of M109 murine lung cancer, the study animals were sacrificed by cervical dislocation. Their lungs were then removed and kept for approximately 5-7 days in 5 ml of Bouin's solution with the following composition: 71% as saturated picric acid solution (Merck), and 24% as 10% formaldehyde (Fluka). When lung metastases were evident, their numbers were counted.\nStatistical analysis of the data for tumour size and number of lung metastases was carried out using the non-parametric Mann-Whitney test for unpaired data."}, "[2]": {"system": "murine cancer of the breast (L-MM3)", "assay": "L-MM3 tumour growth in Balb/c mice (taxol and ALC)", "assay_type": "in vivo, mouse", "experimental": "Treatment schedule 1: the transplantable murine breast cancer cells (L-MM3) of Balb/c origin are grown at 37° C. in plastic flasks in a 5% CO2 humidified incubator in DMEM medium containing 5% heat-inactivated FCS, L-glutamine 2 mM, and gentamicin 80 μg/ml. At the time of inoculation, the cells are detached with trypsin-EDTA and re-suspended in the same medium without PBS.\nTreatment schedule 2: the same experimental groups mentioned above, each consisting of 15 mice (with different cage numbers) are treated as follows in order to evaluate survival and tumour size.\nALC administration lasts 14 days (in groups 16, 17, 18) and the tumour is measured until it reaches a size of approximately 2 cm. The animals are left alive for 100 days.\nThe tumour size (length and width) is measured twice a week with a calliper, from the tumour is measurable. Tumour size is expressed in cm and is evaluated according to the following formula: (length×width).\nTumour sizes are compared using the non-parametric Mann Whitney test for unpaired data."}, "[3]": {"system": "L-MM3 murine breast cancer cells", "assay": "L-MM3 murine breast cancer in Balb/c mice, taxol and PLC, Experiment B (schedule B)", "experimental": "(§1) Cell cultures of L-MM3 murine breast cancer cells were used, cultured at 37° C. in plastic flasks in a humidified atmosphere with 5% CO^2. The cells were grown in DMEM supplemented with 10% FCS and in the presence of 2 mM L-glutamine and 80 μg/ml of gentamicin. The subconfluent cells were collected during the exponential growth phase using trypsin-EDTA and re-suspended in DMEM. They were then injected subcutaneously in female Balb/c mice weighing 20 g at a density of 4×10^5.\n(§2) The tumour was measured with a calliper three times a week as soon as it became palpable. The tumour mass is calculated on the basis of the measurements of the two dimensions (length and width), expressed in mm, according to the following formula: [formula]\n(§3) If we consider conventionally a tumour density equal to 1, the result is that the tumour volume is equal to (mm^3=mg).\n(§4) The agent is weighed, solubilised in the specific vehicle (12 mg/ml), and stored at +4° C., sheltered from the light. At the time of use, it is diluted 1:4 with saline solution in phosphate buffer (PBS, SIGMA) and injected.\n(§5) Cremophor is diluted 1:1 with ethanol and stored sheltered from the light. On the day of treatment it is diluted 1:4 with PBS."}, "[4]": {"system": "L-MM3 murine breast cancer cells", "assay": "L-MM3 murine breast cancer in Balb/c mice, taxol and PLC, Experiment A (schedule A)", "experimental": "as §1, §2, §3, §4, §5"}, "[5]": {"conditions": "taxol i.v. 54 mg/kg/15 ml, sacrifice after 3 days' recovery from last taxol administration"}, "[6]": {"conditions": "taxol i.v., sacrifice 6 hours after fourth taxol administration"}, "[7]": {"conditions": "L-MM3-bearing mice, sacrifice 6 hours after last taxol"}},
  "note": "Where two headings read alike, the source gives them in different places.",
  "data": [
    {"smiles": "CC(=O)O[C@H](CC(=O)[O-])C[N+](C)(C)C", "note": "[ALC, acetyl L-carnitine]", "values": [
      {"measurement": "neutrophil granulocytes", "setting": "[1]; acetyl L-carnitine 100 mg/kg os once daily for 10 days combined with taxol 30 mg/kg i.p. x4", "result": "335 /mm^3"},
      {"measurement": "Sensory nerve conduction velocity, % vs TAXOL", "setting": "Female Wistar rats; acetyl L-carnitine with taxol 8 mg/kg", "result": 5, "unit": "%"},
      {"measurement": "Sensory nerve conduction velocity, % vs TAXOL", "setting": "Female Wistar rats; acetyl L-carnitine with taxol 16 mg/kg", "result": 9, "unit": "%"},
      {"measurement": "hydroxyproline content (HYP)", "setting": "Hamsters", "result": 0.801, "unit": "mg/lung"},
      {"measurement": "effect on the formation of lung metastases (in words)", "setting": "M109 murine lung cancer; ALC 100 mg/kg os", "result": "mild inhibitory effect"},
      {"measurement": "effect on the anticancer activity of taxol (in words)", "setting": "[2]; ALC 100 mg/kg os once daily for 14 days plus taxol 30 mg/kg i.p. x4", "result": "did not affect the anticancer activity of taxol"}
    ]},
    {"smiles": "CC(=O)O[C@H]1C(=O)[C@@]2(C)[C@H]([C@H](OC(=O)c3ccccc3)[C@]3(O)C[C@H](OC(=O)[C@H](O)[C@@H](NC(=O)c4ccccc4)c4ccccc4)C(C)=C1C3(C)C)[C@]1(OC(C)=O)CO[C@@H]1C[C@@H]2O", "note": "[Taxol, paclitaxel, reference compound]", "values": [
      {"measurement": "Absolute neutrophils", "setting": "BALB/c mice; [5]", "result": "330 ± /mm^3"},
      {"measurement": "Lymphocytes", "setting": "BALB/c mice; [5]", "result": 93.0, "unit": "%"},
      {"measurement": "Neutrophils", "setting": "BALB/c mice; [5]", "result": 7.0, "unit": "%"},
      {"measurement": "Absolute neutrophils", "setting": "BALB/c mice; [6]", "result": "229 ± /mm^3"},
      {"measurement": "Lymphocytes", "setting": "BALB/c mice; [6]", "result": 97.1, "unit": "%"},
      {"measurement": "Neutrophils", "setting": "BALB/c mice; [6]", "result": "****2.9%"},
      {"measurement": "Animals with tumours/total animals, Day 45", "setting": "[3]", "result": "5/10"},
      {"measurement": "Animals with tumours/total animals, Day 59", "setting": "[3]", "result": "6/10"},
      {"measurement": "Tumour size, Day 26", "setting": "[3]", "result": "0.1 ± 0.6"},
      {"measurement": "Tumour size, Day 31", "setting": "[3]", "result": "0.2 ± 0.2"},
      {"measurement": "Tumour size, Day 37", "setting": "[3]", "result": "0.45 ± 0.2"},
      {"measurement": "Tumour size, Day 41", "setting": "[3]", "result": "1.750 ± 1.1"},
      {"measurement": "Tumour size, Day 53", "setting": "[3]", "result": "5.000 ± 2.2"},
      {"measurement": "Tumour size, Day 59", "setting": "[3]", "result": "5.6 ± 2.2"},
      {"measurement": "Tumour size, Day 0", "setting": "[3]; day of inoculation", "result": 0},
      {"measurement": "Animals with tumours/total animals, Day 31", "setting": "[3]; taxol 30 mg/kg i.p. days 8,10,12,14, PLC 100 mg/kg s.c. to day 59", "result": "2/10"},
      {"measurement": "Lymphocytes", "setting": "[1]; mouse, in vivo", "result": "98.6 ± 0.2", "unit": "%"},
      {"measurement": "Neutrophils", "setting": "[1]; mouse, in vivo", "result": "****1.3 ± 0.2^ %"},
      {"measurement": "Platelets", "setting": "[1]; mouse, in vivo", "result": "539000 ± 36057", "unit": "mm^3"},
      {"measurement": "Animals with tumours/total number of animals, Day 22", "setting": "[4]", "result": "6/13"},
      {"measurement": "Animals with tumours/total number of animals, Day 25", "setting": "[4]", "result": "7/13"},
      {"measurement": "Animals with tumours/total number of animals, Day 28", "setting": "[4]", "result": "9/13"},
      {"measurement": "Animals with tumours/total number of animals, Day 36", "setting": "[4]", "result": "11/13"},
      {"measurement": "Animals with tumours/total number of animals, Day 46", "setting": "[4]", "result": "11/13"},
      {"measurement": "Animals with tumours/total number of animals, Day 19", "setting": "[4]; taxol 30 mg/kg i.p. days 15,17,19,21, PLC 100 mg/kg s.c. days 12-24", "result": "6/13"},
      {"measurement": "Size of metastases", "setting": "M109 murine lung cancer", "result": "S (S = Small (<1 mm diam))"},
      {"measurement": "number of lung metastases (Mean ± SD)", "setting": "M109 murine lung cancer", "result": "**9 ± 7.3"},
      {"measurement": "L-MM3 tumour size", "setting": "[2]; taxol 30 mg/kg i.p. every two days x4, when control tumours reached approximately 2 cm (control 1.8 cm)", "result": 0.56, "unit": "cm"}
    ]},
    {"smiles": "CC(=O)O[C@H](CC(=O)[O-])C[N+](C)(C)C", "note": "[Vehicle + ALC, acetyl L-carnitine]", "values": [
      {"measurement": "Absolute neutrophils", "setting": "[1]; [7]", "result": "***607 ± 68 ^ /mm^3"},
      {"measurement": "Lymphocytes", "setting": "[1]; [7]", "result": "87.6 ± 0.9", "unit": "%"},
      {"measurement": "Neutrophils", "setting": "[1]; [7]", "result": "12.3 ± 0.9", "unit": "%"},
      {"measurement": "Platelets", "setting": "[1]; [7]", "result": "433000 ± 45731", "unit": "mm^3"},
      {"measurement": "WBC", "setting": "[1]; L-MM3-bearing mice, taxol 30 mg/kg i.p. x4, ALC 100 mg/kg os 10 days, sacrifice 6 hours after last taxol", "result": "4950 ± 385", "unit": "Mm^3"},
      {"measurement": "Size of metastases", "setting": "M109 murine lung cancer", "result": "M, S"},
      {"measurement": "number of lung metastases (Mean ± SD)", "setting": "M109 murine lung cancer", "result": "**77 ± 13.2"}
    ]}
  ]
}
